The values that follow come from patent US20160060234A1, “CYSTEINE DERIVATIVE” (AJINOMOTO CO., INC., priority 2010, published 2016).

One series concerns B16 melanoma. As to the kind of experiment: Eumelanin production suppression test. Format: cell-based. As to conditions: Mus musculus, 72 h, 3 days culture, absorbance of medium at 450 nm, control = 100%, read-out: 50% melanin production suppressing concentration. The method, then:
B16 melanoma was cultured in DMEM (Dulbecco's Modified Eagle Medium) (high glucose, containing 10% serum). Confluent cells were detached with trypsin, and plated on a 96 well plate. After cell adhesion to the plate the next day, the medium was changed to DMEM added with each evaluation sample (control (no sample addition), cysteine derivatives of each Synthetic Example) at a predetermined evaluation concentration (diluted from 10 mM according to sample), and the cells were cultured for 3 days. The 96 well plate was shaken for 5 minutes in a plateshaker, and the absorbance of the medium at 450 nm was measured by a microplatereader. The absorbance after 3 days from the addition of a predetermined concentration of each sample was shown in relative percentage to the measured value (absorbance) of the control (no sample addition) as 100%, and the concentration necessary for suppressing eumelanin production in each sample by 50% was calculated as 50% melanin production suppressing concentration relative to the amount of eumelanin in the control as 100%.
The microplatereader used in this eumelanin production suppression test was Benchmark microplatereader, manufactured by BIORAD.

Series [1] is described as follows: Time-course stability test at 70° C. of cis form-trans form mixture (Experimental Example 2). Format: physicochemical. The note with it: 5 days; for residual ratio (%) at pH 4: 25 mM phosphate buffer pH 4, 70° C.; for residual ratio (%) at pH 4 / residual ratio (%) at pH 5 / residual ratio (%) at pH 6 / residual ratio (%) at pH 7: HPLC area vs day 0; for preservation stability (in words, from Table 1): 25 mM phosphate buffer pH 4-7, 70° C.; for residual ratio (%) at pH 5: 25 mM phosphate buffer pH 5, 70° C.; for residual ratio (%) at pH 6: 25 mM phosphate buffer pH 6, 70° C.; for residual ratio (%) at pH 7: 25 mM phosphate buffer pH 7, 70° C. The method, then:
A time-course stability test was performed using about 1:1 mixture (20 mg/20 ml) of cis form-trans form of N-Ac-CP2Et obtained in Synthetic Example 7 in a 25 mM phosphate buffer at pH 4, 5, 6, and 7 and 70° C. in the same manner as in Examples Experimental Example 1. The test was performed for 5 days. As an index of a time-course stability test at 70° C., the area value of a target substance 5 days after start of the stability test relative to the area value of the target substance on day 0 after start of the stability test was calculated in % on an HPLC chart and used as a residual ratio.
Detector: ultraviolet absorption spectrophotometer (measurement wavelength; 210 nm) Column: Inertsil ODS-3 (High Pressure type, GL Sciences) (particle size 3 μm, inner diameter 4.6 mm, length 250 mm) eluent: A: 0.05M KH2PO4 (adjusted to pH2 with 85% H3PO4), B: MeOH gradient conditions: 0-5 minute: A=100, −25 minute: A:B=50:50, −35 minute: A:B=50:50, −40 minute: A=100, −45 minute: A=100 flow rate: 0.8 mL/minute column temperature: 30° C. sample concentration: 25-50 mg/dL injection volume: 20 μL retention time (minute): N-Ac-CP2Et (cis form): 31.9, N-Ac-CP2Et (trans form): 33.9

Series [2] in a line: Time-course stability test at 70° C. (Experimental Example 1). Format: physicochemical. The note with it: 25 mM phosphate buffer, pH 4, 5, 6 and 7, 70° C., 4 days, HPLC. The method, then:
A time-course stability test was performed using N-Ac-CP2Et obtained in Synthetic Example 1 and N-Ac-CP obtained in Synthetic Example 13 in a 25 mM phosphate buffer at pH 4, 5, 6, and 7 and 70° C. The test was performed for 4 days. As comparison targets, CP obtained in Reference Example 1, and CP2Et obtained in Reference Example 2 were used. For the time-course stability test, HPLC; (pump) HITACHI L-7100, (Autosampler) HITACHI L-2200, and (detector) HITACHI L-4000 were used.
As an index of a time-course stability test at 70° C., the area value of a target substance after time course changes relative to the area value of the target substance on day 0 after start of the stability test was calculated in % on an HPLC chart and used as a residual ratio.
detector: ultraviolet absorption spectrophotometer (measurement wavelength; 210 nm) column: Inertsil ODS (GL Sciences) (particle size 3 μm, inner diameter 4.6 mm, length 250 mm) eluent: 4 mL/L aqueous phosphoric acid solution:methanol=3:1 (v/v) flow rate: 0.8 mL/minute column temperature: 50° C. sample concentration: 100 mg/dL injection volume: 20 μL retention time (minute): CP: 4.6, 4.8 (diastereomer mixture), N-Ac-CP: 8.0 […]

Structures can show the parent of a compound that is named as a salt.

For the molecule `CCOC(=O)C1CSC(C)(C(=O)OCC)N1C(C)=O` (centres unmarked) [Synthetic Example 19, N-acetyl-2-methylthiazolidine-2,4-dicarboxylic acid 2,4-diethyl ester], the IC50 with B16 melanoma was found to be 2.61 mM.
As to `CCOC(=O)C1(C)SCC(C(=O)O)N1C(C)=O` (centres unmarked) (as salt: salt) [Synthetic Example 1, N-acetyl-2-methylthiazolidine-2,4-dicarboxylic acid 2-ethyl ester], the melting point is 138 to 141 °C.
Consider `CCOC(=O)C1(C)SCC(C(=O)O)N1C(C)=O` (stereo not drawn) [N-Ac-CP2Et (trans form), N-acetyl-2-methylthiazolidine-2,4-dicarboxylic acid 2-ethyl ester], for which, in series [1], the “residual ratio (%) at pH 4” value stood at 95.8%; the “preservation stability (in words, from Table 1)” value is recorded as “good preservation stability”; the “residual ratio (%) at pH 5” value was 99.8%; the “residual ratio (%) at pH 6” value is over 99.9%. The “residual ratio (%) at pH 7” value in series [1] was over 99.9%.
On to `CCOC(=O)C1(C)SCC(C(=O)O)N1C(C)=O` (stereo not drawn) [N-Ac-CP2Et (cis form), N-acetyl-2-methylthiazolidine-2,4-dicarboxylic acid 2-ethyl ester], for which, in series [1], the “residual ratio (%) at pH 4” value is listed as 69.9%; the “preservation stability (in words, from Table 1)” value is given as “good preservation stability”; the “residual ratio (%) at pH 5” value is 93.5%; the “residual ratio (%) at pH 6” value is 96.9%. Besides, in series [1], the “residual ratio (%) at pH 7” value is over 99.9%.
As for `CC(=O)N1C(C(=O)O)CSC1(C)C(=O)O` (centres unmarked) [Synthetic Example 13, N-acetyl-2-methylthiazolidine-2,4-dicarboxylic acid], in the series on B16 melanoma, the IC50 stood at 5.47 mM. Moreover, the “preservation stability (residual ratio, FIGS. 1 to 4)” value in series [2] is “preservation stability better than CP and CP2Et”.
In the case of `CCOC(=O)C1(C)SCC(C(=O)O)N1C(C)=O` (centres unmarked) [Synthetic Example 1, N-acetyl-2-methylthiazolidine-2,4-dicarboxylic acid 2-ethyl ester], in the series on B16 melanoma, the IC50 came to 4.54 mM. Also, the “preservation stability (residual ratio, FIGS. 1 to 4)” value in series [2] was “preservation stability better than CP and CP2Et”.
Regarding `CCOC(=O)C1(C)SCC(C(=O)OC(C)C)N1C(C)=O` (centres unmarked) [Synthetic Example 20, N-acetyl-2-methylthiazolidine-2,4-dicarboxylic acid 2-ethyl 4-isopropyl ester], the IC50 with B16 melanoma amounted to 1.42 mM.
